The values that follow come from US5438135A, “Water-soluble tetraazaporphins and fluorochrome for labeling” (Hitachi Chemical Company, priority 1991, dated 1995).

Where two headings read alike, the source gives them in different places.

Series [1] can be described thus: Measurement of fluorescence quantum yield (relative quantum yield method). It is filed as physicochemical. The conditions noted are these: Methanol. The protocol: For the tetraazaporphins obtained in Examples 1 to 11 and tetraaxzaporphins of this invention obtained in the same manner as in Examples 1 to 11, fluorescence quantum yield was measured according to the method for measuring relative quantum yield described in a reference [J. Photochem. Photobiol, A. Chemistry, vol. 45, p. 117-121 (1988)] using 1,1',3,3,3',3'-hexamethylindotricarbocyanine perchlorate or oxazine-720 as a standard substance in the near infrared region. As is clear from Tables 10 to 12, all of the fluorochromes for labeling of this invention show a sufficient fluorescence quantum yield.

The subject of series [2] is anti-morphine monoclonal antibody. It is filed as binding. As to the method:
For morphine, aminomorphine and the above-mentioned fluorochrome-labeled morphines, relative immuno-affinity for anti-morphine monoclonal antibody was measured using a competitive reaction in which they competed with tritium-labeled morphine.

Series [3] deals with DNA having a known base sequence. The series is described as follows: Analysis of the base sequence of DNA (Sanger reaction with labeled primers, DNA sequencer equipped with a semiconductor laser). The conditions noted are these: Triton X-100; semiconductor laser 680 nm. The protocol:
A DNA having a known base sequence was used as a sample. Sanger reaction was carried out for the 4 kinds of bases using each of the labeled primers synthesized in Examples 19 to 25 or primers having a tetraazaporphin attached thereto through a linker synthesized in the same manner as in Examples 19 to 25. The DNA fragments thus obtained were separated by electrophoresis in different lanes for the 4 reaction systems, respectively, and analyzed by means of a DNA sequencer equipped with a semiconductor laser. The reaction systems contained a nonionic surfactant as an addition if necessary.
Each of the phthalocyanines disclosed in International Application Number PCT/US89/03807 was attached to the oligonucleotide primer obtained in Example 18, according to the methods of grafted patents and the methods described in Examples 19 to 25 of this invention. Using each of the phthalocyanine-attached oligonucleotides thus obtained, the base sequence of DNA was analyzed in the same manner as in Example 26.

Series [4] has as its system Human β-globin gene. The series is described as follows: Detection of β-globin gene in human DNA by PCR with labeled primers, fluorescence intensity of eluate. The conditions noted are these: Triton X-100, laser 680 nm. As to the method: Human β-globin gene was detected by a gene detection method using the PCR (Polymorase Chain Reaction) method.
Twenty cycles of gene amplification was carried out (the total volume of solution: 100 μl) according to the protocol of Perkin-Elmer-Cetus Corporation by using human placental DNA (1 μg), each of the labeled primers, i.e., illustrative compound No.-[…], synthesized in the manner described above (300 ng), HO-[…] (300 ng), a nonionic surfactant, and TaqDNA polymerase (Perkin-Elmer-Cetus Corporation).
Human placental DNA (1 μg), the same illustrative compound No.-[…] as in sample 1 (300 ng), HO-[…] (300 ng) and a nonionic surfactant were added to a reaction solution containing no TaqDNA polymerase which had been prepared according to the protocol of Perkin-Elmer-Cetus Corporation (the total volume of the solution: 100 μl). […]
After washing with buffer solution A (500 μl) and buffer solution A containing 5% ethanol (500 μl), elution was carried out using buffer solution A containing 10% ethanol (500 μl). The pH of the eluate was adjusted to about 8, and fluorescence intensity was measured by means of a photodiode array by using a semiconductor laser as an exciting light source. […]

“sodium bis(tripropylsiloxy)silicon-tetraethylthionaphthalocyaninetetracarboxylate [Illustrative compound No. 16]” gave a Fluorescence quantum yield in series [1] (excitation wavelength 700 nm) of 0.32.

In turn, “sodium bis(tributylsiloxy)silicon-tetraphenylthionaphthalocyaninesulfonate [Illustrative compound No. 6]” returned a Fluorescence quantum yield in series [1] (excitation wavelength 700 nm) of 0.30.

As for “sodium bis(tributylsiloxy)silicon-tetraphenylthioquinolocyanineoctacarboxylate [Illustrative compound No. 21]”, the Fluorescence quantum yield in series [1] (excitation wavelength 650 nm) is listed as 0.52.

“sodium bis(tributylsiloxy)silicon-tetraphenylthionaphthalocyanine octacarboxylate [Illustrative compound No. 1]” came in with a Fluorescence quantum yield in series [1] (excitation wavelength 700 nm) of 0.33.

The molecule `CN1CC[C@]23c4c5ccc(O)c4O[C@H]2[C@@H](O)C=C[C@H]3[C@H]1C5` [Morphine] registered a Relative affinity in series [2] (relative to morphine, competitive reaction with tritium-labeled morphine) of 1.

In series [2], “3-(4-aminobutyl)morphine [Aminomorphine]” gave a Relative affinity of 1.

For the molecule “Tetraazaporphin-labeled primer 62: oligonucleotide primer 5'-GTTTCCCAGTCACGAC-3' labeled with illustrative compound No. 62 (labeled with tetraazaporphin compound No. 62, position not given here)”, in series [3], the “Number of bases of DNA” value was 350 and the Precision amounted to 99.7%. Also, the “Relative intensity Sample 1” value in series [4] (Sample 1 (with TaqDNA polymerase, 20 cycles)) was 6. In addition, the “Relative intensity Sample 2” value in series [4] (Sample 2 (no TaqDNA polymerase)) is on record as 134.

Turning to “sodium bis(trihydroxyneopentoxy)silicon-tetraphenylthionaphthalocyanineoctacarboxylate [Illustrative compound No. 11]”, in series [1] (excitation wavelength 700 nm), the Fluorescence quantum yield worked out at 0.34.
